Laboratory results as given in ChEMBL document CHEMBL1151435, “Antileishmanial structure-activity relationships of synthetic phospholipids: in vitro and in vivo activities of selected derivatives” (Antimicrob Agents Chemother, 2007).

Experiments:
Leishmania donovani [1] = test: Activity ratio of compound EC50 to miltefosine EC50 for intracellular Leishmania donovani MHOM/ET/67/HU3 amastigotes infected in peritoneal macrophages of Mesocricetus auratus; assay type: functional
Leishmania donovani [2] = test: Antileishmanial activity against intracellular Leishmania donovani MHOM/ET/67/HU3 amastigotes infected in peritoneal macrophages of Mesocricetus auratus by drug sensitivity assay; assay type: functional, organism-based
[3] = Therapeutic index, ratio of EC50 for human THP1 cells to EC50 for intracellular Leishmania donovani MHOM/ET/67/HU3 amastigotes infected in peritoneal macrophages of Mesocricetus auratus; assay type: cell-based, THP-1; conditions: read-out: TI
Leishmania donovani [4] = test: Antileishmanial activity against Leishmania donovani MHOM/ET/67/HU3 amastigotes infected in po dosed BALB/c mouse model administered one week after infection for 5 consecutive days measured after 3 days of last dose by Giemsa staining; assay type: functional; conditions: for ED50: MHOM/ET/67/HU3, po
[5] = Therapeutic index, ratio of EC50 for human KB cells to EC50 for intracellular Leishmania donovani MHOM/ET/67/HU3 amastigotes infected in peritoneal macrophages of Mesocricetus auratus; assay type: cell-based; conditions: read-out: TI
Leishmania donovani [6] = test: Antileishmanial activity against Leishmania donovani MHOM/ET/67/HU3 promastigotes by drug sensitivity assay; assay type: functional, organism-based
Leishmania donovani [7] = test: Antileishmanial activity against Leishmania donovani MHOM/ET/67/L82 infected in po dosed BALB/c mouse model; assay type: functional; conditions: MHOM/ET/67/L82, po
Leishmania donovani [8] = test: Antileishmanial activity against Leishmania donovani MHOM/ET/67/HU3 amastigotes infected in ip dosed BALB/c mouse model administered one week after infection for 5 consecutive days measured after 3 days of last dose by Giemsa staining; assay type: functional; conditions: MHOM/ET/67/HU3, ip
Leishmania donovani [9] = test: Antileishmanial activity against Leishmania donovani MHOM/ET/67/HU3 amastigotes infected in ip dosed BALB/c mouse model administered as suspension one week after infection for 5 consecutive days measured after 3 days of last dose by Giemsa staining; assay type: functional; conditions: MHOM/ET/67/HU3, ip
[10] = Solubility at phosphate-buffered saline of pH 7.4; assay type: physicochemical; conditions: buffer

For `CCCCCCCCCCCCCCCCOP(=O)([O-])OCC[N+]12CCC(CC1)CC2.O`, the “Ratio EC50” value (Leishmania donovani [1]) was 0.16 and the EC50 (Leishmania donovani [2]) was 550 nM.

With `CCCCCCCCCCCCCCCCOP(=O)([O-])OCC[N+]1(C)CCCCC1` the “Ratio EC50” value (Leishmania donovani [1]) was 0.09, the selectivity ratio [3] was 95.7 and the Activity (Leishmania donovani [4]) was “Dose-dependent effect”. For the same compound, the ED50 (Leishmania donovani [4]) was 25.5 mg/kg, the selectivity ratio [5] was 23.4 and the EC50 (Leishmania donovani [2]) was 300 nM.

`CCCCCCCCCCCCCCCCCCCOP(=O)([O-])OCC[N+]1(C)CCCCC1` gave an EC50 (Leishmania donovani [6]) of 1290 nM.

`CCCCCCCCCCCCCCCCCCOP(=O)([O-])OCC[N+](C)(C)C` [OCTADECYLPHOSPHONOCHOLINE] gave an EC50 (Leishmania donovani [6]) of 2400 nM.

In the case of `CCCCCCCCCCCCCCCCOCCOCCOCCOCCOCCOCCOCCOCCOCCOCCOP(=O)([O-])OC1CC[N+](C)(C)CC1`, the “Ratio EC50” value (Leishmania donovani [1]) is reported as 0.4 and the EC50 (Leishmania donovani [2]) is reported as 1320 nM.

For `CCCCCCCCC(Br)C(Br)CCCCCCCCOP(=O)([O-])OCC[N+](C)(C)C` (configuration not stated), the EC50 (Leishmania donovani [6]) was 1090 nM.

For `CCCCCCCCCCCCCCCCOP(=O)([O-])OCC[N+]1(C)CCOCC1.O`, the “Ratio EC50” value (Leishmania donovani [1]) was 0.46 and the EC50 (Leishmania donovani [2]) was 2460 nM.

For `CCCCCCCCCCCCCCCCCCOP(=O)([O-])OC1CC[N+](C)(Cc2ccccc2)CC1.O` (configuration not stated), the “Ratio EC50” value (Leishmania donovani [1]) was 0.12 and the EC50 (Leishmania donovani [2]) was 400 nM.

`CCCCCCCCCCCCCCCCCC(C)OP(=O)([O-])OCC[N+](C)(C)C` (configuration not stated) showed an EC50 (Leishmania donovani [6]) of 3350 nM.

`CCCCCCCCCCCCCCCCOCC(COP(=O)([O-])OCC[N+](C)(C)C)OC` (configuration not stated) gave an EC50 (Leishmania donovani [6]) of 3580 nM.

Work on `CCCCCCCCCCCCCCCCOP(=O)([O-])OCC[N+](C)(C)C` [MILTEFOSINE] yielded an EC50 (Leishmania donovani [6]) of 5700 nM, a selectivity ratio [3] of 5.48 and an ED50 (Leishmania donovani [7]) of 10 mg/kg. The ED50 (Leishmania donovani [8]) was 7.72 mg/kg, the ED50 (Leishmania donovani [4]) was 8.09 mg/kg and the selectivity ratio [5] was 0.83. The EC50 (Leishmania donovani [2]) was 2040 nM.

For `CCCCCCCCCCCCCCCCCCOP(=O)([O-])OCC[N+](C)(C)C1CC1.O`, the EC50 (Leishmania donovani [6]) was 1520 nM, the “Ratio EC50” value (Leishmania donovani [1]) was 0.5 and the EC50 (Leishmania donovani [2]) was 2640 nM.

In the case of `CCCCCCCCCCCCCCCCOP(=O)([O-])OC1CC[N+](C)(Cc2ccccc2)CC1` (configuration not stated), the “Ratio EC50” value (Leishmania donovani [1]) is reported as 0.12, the ED50 (Leishmania donovani [9]) is reported as 33 mg/kg and the selectivity ratio [3] is reported as > 220. For the same compound, the solubility [10] was “Soluble”, the selectivity ratio [5] was 179 and the EC50 (Leishmania donovani [2]) was 410 nM.

For `CCCCCCCCCCCCCCCCCCOP(=O)([O-])OCC[N+]1(C)CCOCC1`, the “Ratio EC50” value (Leishmania donovani [1]) was 0.18 and the EC50 (Leishmania donovani [2]) was 940 nM.

In the case of `CCCCCCCCCCCCCCCCOP(=O)([O-])OC1CC[N+](C)(CCc2ccccc2)CC1.O.O` (configuration not stated), the “Ratio EC50” value (Leishmania donovani [1]) is reported as 0.49 and the EC50 (Leishmania donovani [2]) is reported as 990 nM.

With `CCCCCCCCCCCCCCCCCCOP(=O)([O-])OC1CC[N+](C)(CC)CC1` (configuration not stated) the EC50 (Leishmania donovani [6]) was 2710 nM.

For `CCCCCCCCCCCCCCCCCCOP(=O)([O-])OCC[N+]1(C)CCSCC1.O`, the EC50 (Leishmania donovani [6]) was 2370 nM, the “Ratio EC50” value (Leishmania donovani [1]) was 0.23 and the EC50 (Leishmania donovani [2]) was 1220 nM.

For `CCCCCCCCCCCCCCCCCCOP(=O)([O-])OC1CC2CCC(C1)[N+]2(C)C` (configuration not stated), the “Ratio EC50” value (Leishmania donovani [1]) was 0.13 and the EC50 (Leishmania donovani [2]) was 710 nM.

In the case of `CCCCCCCCCCCCCCCCCCOP(=O)([O-])OC1CC[N+](C)(C)CC1` [PERIFOSINE], the EC50 (Leishmania donovani [6]) is reported as 3020 nM, the “Ratio EC50” value (Leishmania donovani [1]) is reported as 0.63 and the ED50 (Leishmania donovani [7]) is reported as 25.2 mg/kg.

With `CCCCCCCCCCCCCCCCCCOCC(COP(=O)([O-])OCC[N+]1(C)CCCCC1)OC` (configuration not stated) the EC50 (Leishmania donovani [6]) was 1790 nM, the “Ratio EC50” value (Leishmania donovani [1]) was 0.32 and the EC50 (Leishmania donovani [2]) was 1680 nM.

In the case of `CCCCCCCCCCCCCCCCCCOP(=O)([O-])OCCC1CC[N+](Cc2ccccc2)(Cc2ccccc2)CC1.O`, the “Ratio EC50” value (Leishmania donovani [1]) is reported as 0.23 and the EC50 (Leishmania donovani [2]) is reported as 760 nM.

In the case of `CCCCCCCCCCCCCCCCOCCCOP(=O)([O-])OCC[N+](C)(C)C`, the EC50 (Leishmania donovani [6]) is reported as 1550 nM.

In the case of `CCCCCCCCCCCCCCCCCCOP(=O)([O-])OC1CCC[N+](C)(C)C1` (configuration not stated), the “Ratio EC50” value (Leishmania donovani [1]) is reported as 0.13 and the EC50 (Leishmania donovani [2]) is reported as 430 nM.

`CCCCCCCCCCCCCCCCCCOP(=O)([O-])OCC[N+](C)(C)CC` gave an EC50 (Leishmania donovani [6]) of 2040 nM.

`CCCCCCCCCCCCCCCCCCOP(=O)([O-])OC1CC[N+]2(CCCC2)CC1` showed an EC50 (Leishmania donovani [6]) of 3060 nM.

In the case of `CCCCCCCCCCCCCCCCCCOP(=O)([O-])OC1CC[N+](CC)(CC)CC1.O.O`, the “Ratio EC50” value (Leishmania donovani [1]) is reported as 0.12, the selectivity ratio [3] is reported as 11.7 and the ED50 (Leishmania donovani [4]) is reported as 35.3 mg/kg. It also gave a selectivity ratio [5] of 6.89 and an EC50 (Leishmania donovani [2]) of 400 nM.

Work on `CCCCCCCCCCCCCCCCCCOCC(COP(=O)([O-])OC1CC2CCC(C1)[N+]2(C)C)OC` (configuration not stated) yielded an EC50 (Leishmania donovani [6]) of 1690 nM.

For `CCCCCCCCCCCCCCCCOP(=O)([O-])OCC[N+](C)(C)c1ccccc1.O`, the “Ratio EC50” value (Leishmania donovani [1]) was 0.11 and the EC50 (Leishmania donovani [2]) was 580 nM.

For `CCCCCCCCCCCCCCCCCCOP(=O)([O-])OCC[N+](C)(C)C1CCCCC1.O`, the “Ratio EC50” value (Leishmania donovani [1]) was 0.22 and the EC50 (Leishmania donovani [2]) was 1190 nM.

For `CCCCCCCCCCCCCCCCCCOP(=O)([O-])OCC[N+]1(C)CCC(O)CC1` (configuration not stated), the EC50 (Leishmania donovani [6]) was 3060 nM, the “Ratio EC50” value (Leishmania donovani [1]) was 0.41 and the EC50 (Leishmania donovani [2]) was 1370 nM.

In the case of `CCCCCCCCCCCCCCCCCCSCC(COC)COP(=O)([O-])OCC[N+]1(C)CCCCC1.O` (configuration not stated), the EC50 (Leishmania donovani [6]) is reported as 3610 nM, the “Ratio EC50” value (Leishmania donovani [1]) is reported as 0.07 and the EC50 (Leishmania donovani [2]) is reported as 250 nM.

For `CCCCCCCCCCCCCCCCCCOP(=O)([O-])OCCC1CC[N+](C)(Cc2ccccc2)CC1.O.O` (configuration not stated), the “Ratio EC50” value (Leishmania donovani [1]) was 0.25 and the EC50 (Leishmania donovani [2]) was 820 nM.

`CCCCCCCCCCCCCCCCCCOCCOCCOP(=O)([O-])OCC[N+]1(C)CCCC1` showed an EC50 (Leishmania donovani [6]) of 3360 nM.
